Tests used:
[1] = target: T1, Lysine-specific demethylase 4C (Homo sapiens, UniProt Q9H3R0); experiment: Inhibition of N-terminal His6-tagged KDM4C (1 to 352 residues) (unknown origin) expressed in Escherichia coli Rosetta 2(DE3)pLysS using biotinylated histone H3 (1 to 21 residues) lysine 9 trimethylated peptide/2 uM alpha-ketoglutarate as substrate/cofactor measured after 45 mins by TR-FRET assay; conditions: read-out: IC50
T1 sequence (Q9H3R0 whole entry): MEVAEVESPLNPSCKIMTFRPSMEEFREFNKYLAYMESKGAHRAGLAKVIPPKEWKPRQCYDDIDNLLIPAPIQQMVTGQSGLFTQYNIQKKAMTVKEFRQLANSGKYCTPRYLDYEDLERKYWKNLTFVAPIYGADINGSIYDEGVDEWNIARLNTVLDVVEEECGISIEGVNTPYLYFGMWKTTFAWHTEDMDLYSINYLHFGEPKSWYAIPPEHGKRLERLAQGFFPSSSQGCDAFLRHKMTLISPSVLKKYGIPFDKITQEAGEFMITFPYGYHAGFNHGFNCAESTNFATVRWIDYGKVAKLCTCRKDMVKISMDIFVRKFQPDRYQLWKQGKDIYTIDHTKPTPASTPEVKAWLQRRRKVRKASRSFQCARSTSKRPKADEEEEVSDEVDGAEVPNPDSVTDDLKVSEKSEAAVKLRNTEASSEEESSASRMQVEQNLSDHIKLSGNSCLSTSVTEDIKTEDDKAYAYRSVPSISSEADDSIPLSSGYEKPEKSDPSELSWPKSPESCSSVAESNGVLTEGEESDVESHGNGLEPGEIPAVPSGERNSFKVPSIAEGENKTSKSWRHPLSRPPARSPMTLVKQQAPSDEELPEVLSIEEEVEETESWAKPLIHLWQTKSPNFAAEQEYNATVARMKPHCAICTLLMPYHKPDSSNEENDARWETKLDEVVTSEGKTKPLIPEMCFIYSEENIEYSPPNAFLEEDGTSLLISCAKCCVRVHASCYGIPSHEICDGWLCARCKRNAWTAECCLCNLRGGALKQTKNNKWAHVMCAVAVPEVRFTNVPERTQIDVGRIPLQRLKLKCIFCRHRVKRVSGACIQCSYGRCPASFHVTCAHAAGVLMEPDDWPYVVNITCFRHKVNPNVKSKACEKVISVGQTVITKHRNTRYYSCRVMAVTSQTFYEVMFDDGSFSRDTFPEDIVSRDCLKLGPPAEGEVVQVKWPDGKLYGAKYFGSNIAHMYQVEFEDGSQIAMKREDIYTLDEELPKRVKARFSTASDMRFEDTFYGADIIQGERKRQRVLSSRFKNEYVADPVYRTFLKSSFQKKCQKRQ

[2] = target: T1, Lysine-specific demethylase 4C; experiment: Competitive inhibition of N-terminal His6-tagged KDM4C (1 to 352 residues) (unknown origin) expressed in Escherichia coli Rosetta 2(DE3)pLysS using 50 uM ARK(Me3)STGGK peptide/50 uM alpha-ketoglutarate as substrate/cofactor by FDH coupling-based Lineweaver-Burk plot analysis
[3] = target: T1, Lysine-specific demethylase 4C; experiment: Competitive inhibition of N-terminal His6-tagged KDM4C (1 to 352 residues) (unknown origin) expressed in Escherichia coli Rosetta 2(DE3)pLysS using 250 uM ARK(Me3)STGGK peptide/50 uM alpha-ketoglutarate as substrate/cofactor by FDH coupling-based Lineweaver-Burk plot analysis
[4] = target: T1, Lysine-specific demethylase 4C; experiment: Competitive inhibition of N-terminal His6-tagged KDM4C (1 to 352 residues) (unknown origin) expressed in Escherichia coli Rosetta 2(DE3)pLysS using 50 uM ARK(Me3)STGGK peptide/5 uM alpha-ketoglutarate as substrate/cofactor by FDH coupling-based Lineweaver-Burk plot analysis
[5] = target: T1, Lysine-specific demethylase 4C; experiment: Inhibition of N-terminal His6-tagged KDM4C (1 to 352 residues) (unknown origin) expressed in Escherichia coli Rosetta 2(DE3)pLysS using ARTKQTARK(Me3)STGGKA peptide/100 uM alpha-ketoglutarate as substrate/cofactor incubated for 45 mins by MALDI assay
[6] = target: T1, Lysine-specific demethylase 4C; experiment: Inhibition of N-terminal His6-tagged KDM4C (1 to 352 residues) (unknown origin) expressed in Escherichia coli Rosetta 2(DE3)pLysS using biotinylated peptide/ 2 uM alpha-ketoglutarate as substrate/cofactor preincubated for 15 mins followed by substrate addition measured after 15 mins by alphascreen assay
[7] = target: T1, Lysine-specific demethylase 4C

SMILES | IC50 [1] [µM] | IC50 [2] [µM] | IC50 [3] [µM] | IC50 [4] [µM] | IC50 [5] [µM] | IC50 [6] [µM] | Ki [7] [µM]
COCC(=O)Nc1ccc(O)c(-c2cc(C(=O)O)ccn2)c1 | 0.14 | 14.2 | 14.9 | 3.3 | 47 | 3.8 | 0.683
COc1cccc(CC(=O)Nc2ccc(O)c(-c3cc(C(=O)O)ccn3)c2)c1 | 0.14 | – | – | – | 7.3 | 9.9 | –
O=C(O)c1ccnc(-c2cc(NC(=O)c3ccc(O)cc3)ccc2O)c1 | 0.064 | 4.8 | 5.5 | 1.1 | 5.9 | 12 | 0.0432
CC(=O)Nc1ccc(O)c(-c2cc(C(=O)O)ccn2)c1 | 1.2 | – | – | – | 63 | 15 | –
Cc1cc(C(=O)Nc2ccc(O)c(-c3cc(C(=O)O)ccn3)c2)no1 | 0.065 | – | – | – | 16 | 5.5 | –
